Measured values taken from ChEMBL document CHEMBL5346958 (J Med Chem, 2023).
Where a chain is given by its changes, count along the chain named. pIC50: −log10 of the molar value. One block for each compound: values may come before it.

Legend:
Homo sapiens = organism: Homo sapiens; assay: Selectivity ratio of IC50 for AKR1C2 (unknown origin) to IC50 for AKR1C3 (unknown origin)
[1] = target: T1, Aldo-keto reductase family 1 member C1 (Homo sapiens, UniProt Q04828); assay: Inhibition of recombinant AKR1C1 (unknown origin) dehydrogenase activity by measuring NADH formation by spectrophotometry
T1 sequence (Q04828 whole entry): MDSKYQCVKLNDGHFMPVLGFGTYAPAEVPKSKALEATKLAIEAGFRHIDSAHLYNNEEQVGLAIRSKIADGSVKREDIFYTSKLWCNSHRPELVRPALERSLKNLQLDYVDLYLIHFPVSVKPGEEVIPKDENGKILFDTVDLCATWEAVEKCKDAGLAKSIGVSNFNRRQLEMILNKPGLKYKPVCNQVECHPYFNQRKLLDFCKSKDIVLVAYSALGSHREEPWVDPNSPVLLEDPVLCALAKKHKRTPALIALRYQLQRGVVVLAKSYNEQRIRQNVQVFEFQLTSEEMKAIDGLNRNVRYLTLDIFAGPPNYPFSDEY

[2] = target: T2, Aldo-keto reductase family 1 member C2 (Homo sapiens, UniProt P52895); assay: Inhibition of recombinant AKR1C2 (unknown origin) dehydrogenase activity by measuring NADH formation by spectrophotometry
T2 sequence (P52895 whole entry): T1 sequence (Q04828 whole entry) with T38V, R47H, L54V, C87S, V151M, R170H, Q172L

[3] = target: T3, Aldo-keto reductase family 1 member C3 (Homo sapiens, UniProt P42330); assay: Inhibition of recombinant AKR1C3 (unknown origin) dehydrogenase activity by measuring NADH formation by spectrophotometry
T3 sequence (P42330 whole entry): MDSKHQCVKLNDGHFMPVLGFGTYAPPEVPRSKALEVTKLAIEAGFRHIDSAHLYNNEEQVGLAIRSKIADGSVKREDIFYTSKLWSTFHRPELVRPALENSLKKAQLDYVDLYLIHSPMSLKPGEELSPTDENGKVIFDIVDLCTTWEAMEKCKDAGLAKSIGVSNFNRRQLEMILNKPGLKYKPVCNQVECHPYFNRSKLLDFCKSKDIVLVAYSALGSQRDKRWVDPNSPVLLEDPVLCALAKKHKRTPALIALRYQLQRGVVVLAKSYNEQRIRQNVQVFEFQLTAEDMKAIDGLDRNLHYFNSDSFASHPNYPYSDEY

[4] = target: T3, Aldo-keto reductase family 1 member C3; assay: Inhibition of AKR1C3 (unknown origin)
[5] = Stability of compound in SGF assessed as compound remaining after 1 hrs; assay type: ADME; details: simulated gi fluid
[6] = Tmax in BALB/c mouse at 10 mg/kg, po measured upto 24 hrs; assay type: ADME, organism-based; details: in vivo
[7] = Stability of compound in SIF assessed as compound remaining after 2 hrs; assay type: ADME; details: simulated gi fluid
[8] = AUC (0 to t) in BALB/c mouse at 10 mg/kg, po measured upto 24 hrs; assay type: ADME, organism-based; design: time < 24 hrs, dose 10 mg/kg, route po; details: in vivo
[9] = Cmax in BALB/c mouse at 10 mg/kg, po measured upto 24 hrs; assay type: ADME, organism-based; design: dose 10 mg/kg, time < 24 hrs, route po; details: in vivo
[10] = Extrapolated AUC in BALB/c mouse at 10 mg/kg, po measured upto 24 hrs; assay type: ADME, organism-based; details: in vivo
[11] = Half life in BALB/c mouse at 10 mg/kg, po measured upto 24 hrs; assay type: ADME, organism-based; details: in vivo
[12] = target: T4, Aldo-keto reductase family 1 member C1 (Homo sapiens) (UniProt Q04828); assay: Inhibition of recombinant AKR1C1 (unknown origin) dehydrogenase activity at 100 uM by measuring NADH formation by spectrophotometry relative to control
T4 sequence (whole entry): T1 sequence (Q04828 whole entry)

[13] = Apparent oral clearance in BALB/c mouse at 10 mg/kg, po measured upto 24 hrs; assay type: ADME, organism-based; details: in vivo
[14] = AUC (0 to infinity) in BALB/c mouse at 10 mg/kg, po measured upto 24 hrs; assay type: ADME, organism-based; design: time < 24 hrs, dose 10 mg/kg, route po; details: in vivo
[15] = Apparent volume of distribution during terminal phase in BALB/c mouse at 10 mg/kg, po measured upto 24 hrs; assay type: ADME, organism-based; details: in vivo
[16] = Metabolic stability in mouse plasma assessed as formation of (E)-3-(3-(11,2,4)triazolo(1,5-alpyridin-6-y1)-5-((4-methylbenzy1)-carbamoyl)phenyl)acrylic acid; assay type: ADME, cell-free
[17] = Stability on mouse plasma assessed as compound remaining measured at 30 mins; assay type: ADME, cell-free; details: 0.5 h
[18] = Metabolic stability in human liver microsomes assessed as compound degradation by LC-MS/MS analysis; assay type: ADME, Microsome; details: read-out: Drug degradation
[19] = Tmax in BALB/c mouse assessed as (E)-3-(3-(11,2,4)triazolo(1,5-alpyridin-6-y1)-5-((4-methylbenzy1)-carbamoyl)phenyl)acrylic acid at 10 mg/kg, po measured upto 24 hrs; assay type: ADME, organism-based; details: in vivo
[20] = AUC (0 to t) in BALB/c mouse assessed as (E)-3-(3-(11,2,4)triazolo(1,5-alpyridin-6-y1)-5-((4-methylbenzy1)-carbamoyl)phenyl)acrylic acid at 10 mg/kg, po measured upto 24 hrs; assay type: ADME, organism-based; design: dose 10 mg/kg, time < 24 hrs, route po; details: in vivo
[21] = Cmax in BALB/c mouse assessed as (E)-3-(3-(11,2,4)triazolo(1,5-alpyridin-6-y1)-5-((4-methylbenzy1)-carbamoyl)phenyl)acrylic acid at 10 mg/kg, po measured upto 24 hrs; assay type: ADME, organism-based; design: dose 10 mg/kg, time < 24 hrs, route po; details: in vivo
[22] = Metabolic stability in mouse liver microsomes assessed as compound degradation by LC-MS/MS analysis; assay type: ADME, Microsome; details: read-out: Drug degradation
CWR22R [23] = assay: Antitumor activity against human 22Rv1 cells xenografted in NSG mouse tumor model assessed as reduction in tumor volume at 50 mg/kg, ip treated for 26 days relative to control; assay type: functional; details: 22Rv1, 624 h, time 26 day
[24] = Prodrug conversion in human liver microsomes assessed as formation of (E)-3-(3-(11,2,4)triazolo(1,5-alpyridin-6-y1)-5-((4-methylbenzy1)-carbamoyl)phenyl)acrylic acid over 60 mins; assay type: ADME, Microsome; details: 1 h
[25] = Prodrug conversion in mouse liver microsomes assessed as formation of (E)-3-(3-(11,2,4)triazolo(1,5-alpyridin-6-y1)-5-((4-methylbenzy1)-carbamoyl)phenyl)acrylic acid over 60 mins; assay type: ADME, Microsome; details: 1 h
[26] = Toxicity in NSG mouse xenografted with human 22Rv1 cells assessed as body weight loss at 25 to 50 mg/kg, ip treated for 26 days; assay type: organism-based, CWR22R; details: in vivo, 624 h, dose 25-50 mg/kg, time 26 day
[27] = Half life in BALB/c mouse assessed as (E)-3-(3-(11,2,4)triazolo(1,5-alpyridin-6-y1)-5-((4-methylbenzy1)-carbamoyl)phenyl)acrylic acid at 10 mg/kg, po measured upto 24 hrs; assay type: ADME, organism-based; details: in vivo
CWR22R [28] = assay: Antitumor activity against human 22Rv1 cells xenografted in NSG mouse tumor model assessed as reduction in tumor volume at 25 mg/kg, ip treated for 26 days relative to control; assay type: functional; details: 22Rv1, 624 h, time 26 day
[29] = AUC (0 to infinity) in BALB/c mouse assessed as (E)-3-(3-(11,2,4)triazolo(1,5-alpyridin-6-y1)-5-((4-methylbenzy1)-carbamoyl)phenyl)acrylic acid at 10 mg/kg, po measured upto 24 hrs; assay type: ADME, organism-based; design: time < 24 hrs, dose 10 mg/kg, route po; details: in vivo

SMILES: Cc1ccc(CNC(=O)c2cc(C#Cc3ccccc3)cc(/C=C/C(=O)O)c2)cc1
Ratio IC50 (Homo sapiens): 61

SMILES: C/C=C/Cc1cc(/C=C/C(=O)O)cc(C(=O)NCc2ccc(C)cc2)c1
pIC50 [1]: < 4.00 | Ratio IC50 (Homo sapiens): 354

SMILES: Cc1ccc(CNC(=O)c2cc(/C=C/C#N)cc(-c3ccc(Oc4ccccc4)cc3)c2)cc1
pIC50 [3]: 5.85

SMILES: Cc1ccc(CNC(=O)c2cc(/C=C/C(=O)O)cc(-c3cccc(F)c3)c2)cc1
pIC50 [1]: < 4.00 | Ratio IC50 (Homo sapiens): 960

SMILES: Cc1ccc(CNC(=O)c2cc(/C=C/C(=O)O)cc(-c3ccc4c(c3)OCO4)c2)cc1
pIC50 [1]: < 4.00

SMILES: Cc1ccc(CNC(=O)c2cc(/C=C/C(=O)O)cc(-c3ccc(F)cc3)c2)cc1
pIC50 [1]: < 4.00 | Ratio IC50 (Homo sapiens): 600

SMILES: Cc1ccc(CNC(=O)c2cc(C#CC3CC3)cc(/C=C/C(=O)O)c2)cc1
Ratio IC50 (Homo sapiens): 74

SMILES: CN(CCC(=O)O)C(=O)c1ccc2c(c1)CC[C@@H]1[C@@H]2CC[C@]2(C)C(c3cncc(F)c3)=CC[C@@H]12
pIC50 [4]: 8.74

SMILES: Cc1ccc(CNC(=O)c2cc(/C=C/C(=O)O)cc(CC(C)c3ccccc3)c2)cc1 (centres undefined)
Ratio IC50 (Homo sapiens): 177

SMILES: Cc1ccc(CNC(=O)c2cc(/C=C/C(=O)O)cc(-c3ccccc3F)c2)cc1
pIC50 [1]: < 4.00 | pIC50 [2]: < 4.00 | Ratio IC50 (Homo sapiens): > 1430

SMILES: Cc1ccc(CNC(=O)c2cc(/C=C/C(=O)O)cc(-c3ccc(Oc4ccccc4)cc3)c2)cc1
Ratio IC50 (Homo sapiens): 51

SMILES: CC(C)=CCOc1cc(/C=C/C(=O)O)cc(C(=O)NCc2ccc(C)cc2)c1
Ratio IC50 (Homo sapiens): 187

The next lines start with results.

Ratio IC50 (Homo sapiens): 160
SMILES: Cc1ccc(CNC(=O)c2cc(/C=C/C(=O)O)cc(-c3ccc(C)cc3)c2)cc1

pIC50 [1]: < 4.00 | pIC50 [2]: < 4.00 | Ratio IC50 (Homo sapiens): > 2500
SMILES: Cc1ccc(CNC(=O)c2cc(/C=C/C(=O)O)cc(-c3ccccc3)c2)cc1

Ratio IC50 (Homo sapiens): 109
SMILES: Cc1ccc(CNC(=O)c2cc(/C=C/C(=O)O)cc(-c3ccc4cccnc4c3)c2)cc1

pIC50 [3]: 5.57
SMILES: CC(C)=CCc1cc(/C=C/C#N)cc(C(=O)NCc2ccc(C)cc2)c1

Ratio IC50 (Homo sapiens): 221
SMILES: Cc1ccc(CNC(=O)c2cc(/C=C/C(=O)O)cc(-c3ccc(-n4c5ccccc5c5ccccc54)cc3)c2)cc1

Ratio IC50 (Homo sapiens): 16
SMILES: Cc1ccc(CNC(=O)c2cc(/C=C/C(=O)O)cc(-c3ccc(CN4CCOCC4)c(F)c3)c2)cc1

pIC50 [1]: < 4.00 | pIC50 [2]: < 4.00 | Ratio IC50 (Homo sapiens): > 333
SMILES: Cc1ccc(CNC(=O)c2cc(Br)cc(/C=C/C(=O)O)c2)cc1

Ratio IC50 (Homo sapiens): 140
SMILES: Cc1ccc(CNC(=O)c2cc(/C=C/C(=O)O)cc(-c3ccc4ccccc4c3)c2)cc1

pIC50 [1]: < 4.00 | Ratio IC50 (Homo sapiens): 333
SMILES: Cc1ccc(CNC(=O)c2cc(/C=C/C(=O)O)cc(-c3ccc(Cl)cc3)c2)cc1

pIC50 [1]: < 4.00 | Ratio IC50 (Homo sapiens): 200
SMILES: Cc1ccc(CNC(=O)c2cc(/C=C/C(=O)O)cc(-c3ccc4c(c3)OCCO4)c2)cc1

Ratio IC50 (Homo sapiens): 200
SMILES: C/C=C\Cc1cc(/C=C/C(=O)O)cc(C(=O)NCc2ccc(C)cc2)c1

Ratio IC50 (Homo sapiens): 580
SMILES: Cc1ccc(CNC(=O)c2cc(/C=C/C(=O)O)cc(-c3ccc(-c4ccccc4)cc3)c2)cc1

Stability [5]: Stable | Tmax [6]: 6 min | pIC50 [1]: < 4.00 | Stability [7]: Stable | AUCt [8]: 367.6 ng·h/mL | Cmax [9]: 174.8 ng/mL | %AUCextra [10]: 28.8% | t1/2 [11]: 864 min | inhibition [12]: 8% | Ratio IC50 (Homo sapiens): 1220 | CL/F [13]: 323 mL/min/kg | AUC [14]: 515.1 ng·h/mL | Vz/F [15]: 405 L/kg
SMILES: Cc1ccc(CNC(=O)c2cc(/C=C/C(=O)O)cc(-c3ccc4ncnn4c3)c2)cc1

Ratio IC50 (Homo sapiens): 133
SMILES: Cc1ccc(CNC(=O)c2cc(/C=C/C(=O)O)cc(-c3ccc4nccnc4c3)c2)cc1

Drug metabolism [16]: Metabolite_Detected | Stability [5]: Stable | Tmax [6]: 19 min | Stability [7]: Stable | Stability [17]: Unstable | metabolised [18]: 25% | AUCt [8]: 36.416 ng·h/mL | Cmax [9]: 92.796 ng/mL | Tmax [19]: 12 min | AUCt [20]: 6382.8 ng·h/mL | Cmax [21]: 11599.4 ng/mL | metabolised [22]: 25% | Drug metabolism [24]: Metabolite_Detected | Drug metabolism [25]: Metabolite_Detected | t1/2 [27]: 534 min | AUC [29]: 6550.1 ng·h/mL
SMILES: COC(=O)/C=C/c1cc(C(=O)NCc2ccc(C)cc2)cc(-c2ccc3ncnn3c2)c1
inhibition in vivo at 50 mg/kg (CWR22R [23]): 45% | Activity [26]: Non-Toxic | inhibition in vivo at 25 mg/kg (CWR22R [28]): 30%

Ratio IC50 (Homo sapiens): 51
SMILES: CC[C@@H](NC(=O)c1cc(/C=C/C(=O)O)cc(-c2ccc(C(C)C)cc2)c1)c1ccccc1
